Measurements reported in patent US20220160703A1, “TUMOR-SELECTIVE COMBINATION THERAPY” (The Board of Regents of The University of Texas System, priority 2019, published 2022).

Key:
[1] = test system: MC38 cells with CRISPR-based NQO1 Knockout; experiment: Cell survival of NQO1 knockout MC38 cells; format: cell-based, murine; conditions: 3 hr exposure, survival 48 hr later
Procedure: (FIG. 1A) NQO1 positive tumor cell lines MC38, TC-1 and Ag104Ld and NQO1 negative cell lines Panc02 and B16 grown in 48-well plates were treated with β-lap (0-8 μM) for a 3 hr followed by washing and replacing medium. Cell viability was determined by Sulforhodamine B (SRB) Assay 4 days later. […] (FIG. 1C) MC38 cells with CRISPR-based NQO1 Knockout (MC38 NQO1KO #5) planted in 96-well plates were exposed to β-lap for 3 hr and cell survival was assessed 48 hr later. […] (FIG. 1E) MC38 cells were exposed to a lethal dose of β-lap (4 μM) for indicated times, then stained with 7-AAD and Annexin V followed by flow cytometry analysis. […] (FIG. 1H) MC38 and B16 NQO1 #1 cells were exposed to β-lap for a 3 hr. Catalase (1000 U/ml) was added and cell survival was assessed 48 hr later. […] Tumor growth was monitored twice a week.
FIGS. 17A-I (related to FIGS. 1A-J). […] (FIG. 17A) NQO1 expression in different murine cancer cell lines was determined by western blotting assay. […] Cell viability was determined by Sulforhodamine B (SRB) Assay 48 hr later. […] Cell viability was determined by SRB Assay 48 hr later. […] Catalase (1000 U/ml) was added and cell viability was assessed 48 hr later. […] Tumor growth was monitored twice a week. […] Data are shown as mean±SEM. **P<0.01, ***P<0.001, ****P<0.0001 determined by unpaired student t-test (FIG. 17G) or two-way ANOVA (FIG. 17H and FIG. 17I). […]

[2] = test system: tumor-infiltrating immune cells; experiment: Flow cytometric analysis of immune cells in tumor and organs; format: in vivo, mice
Procedure: (FIGS. 11A-B) Single cells were conducted from MC38 (FIG. 11A) or TC-1 (FIG. 11B) tumor tissues after 3 days of β-lap treatment. The frequency of CD11b+ Gr1+ cells were then analyzed by flow cytometry. (FIGS. 11C-D) C57BL/6 WT mice (n=5/group) were inoculated subcutaneously (s.c.) with 6×10^5 MC38 (FIG. 11C) or 1×10^5 TC-1 (FIG. 11D) cells and treated intratumorally (i.t.) with 0.3 (mg) of β-lap or vehicle on day 9, day 12, and day 15. Anti-Ly6G blocking Ab (200 μg) were intraperitoneally administered twice a week, starting on day 8. Tumor growth was monitored twice a week. Data are shown as mean±SEM from two to three independent experiments. **P<0.01, ***P<0.001, ****P<0.0001 determined by two-way ANOVA.
(FIG. 18A) B16 NQO1 #1 cells were subcutaneously transplanted into C57BL/6 WT and Rag1KO mice (n=5/group), respectively. Tumor bearing mice were treated with β-lap (0.3 mg, i.t.) every other day for four times. (FIG. 18B) Changes of the immune cells in the tumor microenvironment 7 days after β-lap treatment. […] 7 days after the last treatment, tumor tissue was removed and digested, and immune cells were analyzed with flow cytometer (unpaired student t-test was used to analyze the significance of changes, *P<0.05, **P<0.01). […]
6×10^5 MC38 cells were subcutaneously transplanted into C57BL/6 mice (n=3/group). […] (FIG. 23B) Quantification of immune populations from vehicle and IB-DNQ treated tumors. […] CFSE labeled splenocytes were treated with lethal dose IB-DNQ for 4 h followed by washing and stimulation with anti-CD3 (1 μg/ml) and anti-CD28 (2 μg/ml) for 48 h, proliferative CD8 T cells were then analyzed by flow cytometry assay. […] 24 h later, cell death was analyzed by flow cytometry. […]
Naïve (n=5/group) and IB-DNQ-cured MC38 tumor-free (n=7/group) C57BL/6 mice were re-challenged subcutaneously with 3×10^6 MC38 cells on the opposite site from the primary tumor 60 days after complete rejection. […] (FIG. 26F) DCs from LNs of tumor-free (TF) or tumor-bearing mice were stimulated with antigen induced by IB-DNQ (1 μM) for 5 h, then CD44 expression on DCs was assessed.

NQO1 = NQO1 (Homo sapiens, UniProt P15559); conditions: in ~2 min; cited from earlier work
NQO1, sequence (P15559 whole entry, species assumed): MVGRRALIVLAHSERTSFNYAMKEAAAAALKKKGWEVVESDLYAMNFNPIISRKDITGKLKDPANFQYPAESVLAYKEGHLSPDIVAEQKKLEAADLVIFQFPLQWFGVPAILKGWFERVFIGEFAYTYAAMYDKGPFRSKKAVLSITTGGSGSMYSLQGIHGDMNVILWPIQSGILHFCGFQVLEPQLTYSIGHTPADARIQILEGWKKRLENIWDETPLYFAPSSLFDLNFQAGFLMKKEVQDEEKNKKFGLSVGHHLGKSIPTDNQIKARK

## CC1(C)CCC2=C(O1)c1ccccc1C(=O)C2=O [β-lap, β-lapachone]
[1]
  response to β-lap (cell survival): resistance to β-lap treatment
[2]; MC38, 7 days after β-lap 0.3 mg i.t. two times
  T cells in treated tumors: increase in CD4^+ and CD8^+ T cells
[2]; MC38-OVA, 12 days after initial treatment
  CD45+ cells, CD8+ T cells and CD8+ T cell:Treg cell ratio in tumor tissues: significant increase
[2]; after 3 days of β-lap treatment
  tumor-infiltrating neutrophils (CD11b+Gr1+): significantly increased
NQO1
  NAD(P)H consumed by one mole of drug: ~60 mol
  superoxide generated by one mole of drug: ~120 mol
